Test results from ChEMBL document CHEMBL4270663, “6-Benzhydryl-4-amino-quinolin-2-ones as Potent Cannabinoid Type 1 (CB1) Receptor Inverse Agonists and Chemical Modifications for Peripheral Selectivity” (J Med Chem, 2018).
Calls of active or inactive are those of the source. No cut-off for these calls is given here.

Assays:
[1] = Ratio of drug level in brain to plasma of MDR1a knockout CF-1 mouse at 20 mg/kg, po; format: ADME, organism-based; details: read-out: BPR
[2] = Drug uptake in brain of diet-induced obese C57BL/6J mouse model at 10 mg/kg, po administered as daily dose measured at 2 hrs post last dose on day 2; format: ADME, organism-based; details: in vivo
[3] = Ratio of drug level in brain to plasma of diet-induced obese C57BL/6J mouse model at 3 mg/kg, po administered as daily dose measured at 2 hrs post last dose on day 23; format: ADME, organism-based; details: read-out: BPR
[4] = Drug uptake in C57BL/6J mouse brain at 20 mg/kg, po measured after 4 hrs; format: ADME, organism-based; details: in vivo
Mus musculus [5] = experiment: Antiobesity activity in diet induced obese C57BL/6J mouse model assessed as decrease in body weight at 3 mg/kg, po administered as daily dose measured every day for 5 days and continuing every other day till day 8 and 15; format: functional, organism-based
[6] = Drug uptake in C57BL/6J mouse plasma at 20 mg/kg, po measured after 4 hrs; format: ADME, organism-based
[7] = Ratio of drug level in brain to plasma of diet-induced obese C57BL/6J mouse model at 30 mg/kg administered as daily dose measured at 2 hrs post last dose on day 5; format: ADME, organism-based; details: read-out: BPR
Cytochrome P450 2C9 = Cytochrome P450 2C9 (Homo sapiens, UniProt P11712); experiment: Inhibition of CYP2C9 in human liver microsomes using tolbutamide as substrate after 10 to 30 mins by LC/MS analysis; format: ADME
[8] = Drug uptake in plasma of diet-induced obese C57BL/6J mouse model at 1 mg/kg, po administered as daily dose measured at 2 hrs post last dose on day 22; format: ADME, organism-based
Mus musculus [9] = experiment: Antiobesity activity in diet induced obese C57BL/6J mouse model assessed as decrease in food intake at 3 mg/kg, po administered as daily dose measured every day for 5 days and continuing every other day till day 8 and 15; format: functional, organism-based
[10] = Tmax in C57BL/6J mouse at 5 mg/kg, iv or 20 mg/kg, po administered via gavage by LC-MS/MS analysis; format: ADME, organism-based; details: in vivo
Mus musculus [11] = experiment: In vivo receptor occupancy at CB1 receptor in brain of diet induced obese C57BL/6J mouse model at 30 mg/kg, po administered as daily dose for 5 days measured 10 mins post last dose in presence of [3H]-CP-55940 relative to control; format: functional
[12] = Ratio of drug level in brain to plasma of diet-induced obese C57BL/6J mouse model at 10 mg/kg, po administered as daily dose measured at 2 hrs post last dose on day 23; format: ADME, organism-based; details: read-out: BPR
[13] = Drug uptake in brain of diet-induced obese C57BL/6J mouse model at 30 mg/kg administered as daily dose measured at 2 hrs post last dose on day 5; format: ADME, organism-based; details: in vivo
Mus musculus [14] = experiment: Antiobesity activity in diet induced obese C57BL/6J mouse model assessed as decrease in food intake at 30 mg/kg administered as daily dose measured every day for 5 days; format: functional, organism-based
[15] = Drug uptake in plasma of diet-induced obese C57BL/6J mouse model at 10 mg/kg, po administered as daily dose measured at 2 hrs post last dose on day 22; format: ADME, organism-based
[16] = Drug uptake in brain of diet-induced obese C57BL/6J mouse model at 3 mg/kg, po administered as daily dose measured at 2 hrs post last dose on day 23; format: ADME, organism-based; details: in vivo
Mus musculus [17] = experiment: Antiobesity activity in diet induced obese C57BL/6J mouse model assessed as decrease in body weight at 30 mg/kg administered as daily dose measured every day for 5 days; format: functional, organism-based
[18] = Drug uptake in C57BL/6J mouse brain at 20 mg/kg, po measured after 1 hr; format: ADME, organism-based; details: in vivo
[19] = Ratio of drug level in brain to plasma of diet-induced obese C57BL/6J mouse model at 10 mg/kg, po administered as daily dose measured at 2 hrs post last dose on day 1; format: ADME, organism-based; details: read-out: BPR
[20] = Metabolic stability in mouse liver microsomes assessed as parent compound remaining at 1 uM after 10 mins in presence of NADPH; format: ADME, microsome; details: read-out: Stability
Cytochrome P450 2C19 = Cytochrome P450 2C19 (Homo sapiens, UniProt P33261); experiment: Inhibition of CYP2C19 in human liver microsomes using (S)-mephenytoin as substrate after 10 to 30 mins by LC/MS analysis; format: ADME
[21] = Volume of distribution at steady state in C57BL/6J mouse at 5 mg/kg, iv or 20 mg/kg, po administered via gavage by LC-MS/MS analysis; format: ADME, organism-based; details: in vivo, read-out: Vdss
[22] = Ratio of drug level in C57BL/6J mouse brain to plasma at 20 mg/kg, po measured after 4 hrs; format: ADME, organism-based; details: read-out: BPR
Cannabinoid receptor 1 = Cannabinoid receptor 1 (Homo sapiens, UniProt P21554); experiment: Inverse agonist activity at human CB1 receptor expressed in HEK293 cells assessed as inhibition of forskolin-induced cAMP accumulation after 30 mins by HTRF assay; format: functional, cell-based
[23] = Metabolic stability in rat liver microsomes assessed as parent compound remaining at 1 uM after 10 mins in presence of NADPH; format: ADME, microsome; details: read-out: Stability
[24] = Drug uptake in brain of MDR1a knockout CF-1 mouse at 20 mg/kg, po measured at 2 hrs post last dose on day 2; format: ADME, organism-based; details: in vivo
Mus musculus [25] = experiment: Antiobesity activity in diet induced obese C57BL/6J mouse model assessed as decrease in liver fat content at 3 to 10 mg/kg, po administered as daily dose measured at day 26 post last dose; format: functional, organism-based
[26] = Clearance in C57BL/6J mouse at 5 mg/kg, iv or 20 mg/kg, po administered via gavage by LC-MS/MS analysis; format: ADME, organism-based; details: in vivo
[27] = Drug uptake in plasma of diet-induced obese C57BL/6J mouse model at 3 mg/kg, po administered as daily dose measured at 2 hrs post last dose on day 1; format: ADME, organism-based

Sequence of Cannabinoid receptor 1 (P21554 whole entry): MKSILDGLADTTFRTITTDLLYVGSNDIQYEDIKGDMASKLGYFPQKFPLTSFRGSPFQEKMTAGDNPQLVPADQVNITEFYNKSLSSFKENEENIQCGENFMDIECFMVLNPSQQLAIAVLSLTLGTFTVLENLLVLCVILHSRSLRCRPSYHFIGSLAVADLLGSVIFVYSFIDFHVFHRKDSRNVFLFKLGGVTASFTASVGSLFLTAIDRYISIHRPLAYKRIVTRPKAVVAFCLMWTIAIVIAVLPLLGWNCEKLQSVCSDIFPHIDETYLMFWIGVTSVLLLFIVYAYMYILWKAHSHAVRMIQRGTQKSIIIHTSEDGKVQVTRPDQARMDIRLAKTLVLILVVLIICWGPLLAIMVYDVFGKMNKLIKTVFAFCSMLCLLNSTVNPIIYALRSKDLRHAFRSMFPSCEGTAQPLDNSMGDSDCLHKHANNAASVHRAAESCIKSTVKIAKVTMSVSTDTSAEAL
Sequence of Cytochrome P450 2C19 (P33261 whole entry): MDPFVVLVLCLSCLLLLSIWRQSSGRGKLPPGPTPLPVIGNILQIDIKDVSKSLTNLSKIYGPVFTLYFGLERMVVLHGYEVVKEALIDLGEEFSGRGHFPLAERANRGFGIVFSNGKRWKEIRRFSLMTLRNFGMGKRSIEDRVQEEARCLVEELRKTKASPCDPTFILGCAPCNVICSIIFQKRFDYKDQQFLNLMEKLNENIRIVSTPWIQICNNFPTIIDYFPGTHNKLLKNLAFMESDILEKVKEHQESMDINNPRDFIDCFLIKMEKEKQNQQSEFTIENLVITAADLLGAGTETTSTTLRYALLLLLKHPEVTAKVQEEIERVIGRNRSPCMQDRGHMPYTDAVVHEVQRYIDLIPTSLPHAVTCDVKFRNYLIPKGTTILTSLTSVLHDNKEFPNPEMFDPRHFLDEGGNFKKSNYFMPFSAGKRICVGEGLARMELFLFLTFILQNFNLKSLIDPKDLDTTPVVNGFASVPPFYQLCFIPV
Sequence of Cytochrome P450 2C9 (P11712 whole entry): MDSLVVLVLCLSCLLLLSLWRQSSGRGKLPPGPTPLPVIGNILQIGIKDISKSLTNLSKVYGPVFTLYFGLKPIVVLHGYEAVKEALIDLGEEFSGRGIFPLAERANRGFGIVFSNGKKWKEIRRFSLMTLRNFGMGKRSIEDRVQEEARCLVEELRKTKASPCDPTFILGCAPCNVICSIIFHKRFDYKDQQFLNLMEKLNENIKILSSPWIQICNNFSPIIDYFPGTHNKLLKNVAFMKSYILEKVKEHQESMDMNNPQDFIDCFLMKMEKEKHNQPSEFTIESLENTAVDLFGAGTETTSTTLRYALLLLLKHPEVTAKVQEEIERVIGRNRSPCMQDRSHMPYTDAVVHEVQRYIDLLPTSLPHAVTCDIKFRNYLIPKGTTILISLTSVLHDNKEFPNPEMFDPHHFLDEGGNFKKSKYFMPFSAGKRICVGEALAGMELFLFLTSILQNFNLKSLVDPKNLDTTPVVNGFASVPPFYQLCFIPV

In the case of O=c1cc(NC2CCN(S(=O)(=O)C(F)(F)F)CC2)c2cc(C(c3ccc(Cl)cc3)c3ccc(Cl)cc3)ccc2[nH]1, the Kp [1] is reported as 0.72, the Drug uptake [2] is reported as 0.102 nmol/g and the Kp at 2 h [3] is reported as 0.065. For the same compound, the Drug uptake [4] was 0.019 nmol/g, the Activity (Mus musculus [5]) was “Active” and the concentration at 4 h [6] was 1940 nM. It also gave a Kp at 2 h [7] of 0.024, an IC50 (Cytochrome P450 2C9) greater than 10 µM and a concentration at 2 h [8] of 843 nM. For the same compound, the Activity (Mus musculus [9]) was “Active”, the Tmax [10] was 2 h and the Occ (Mus musculus [11]) was 71.6%. For the same compound, the Kp at 2 h [12] was 0.038, the Drug uptake [13] was 0.357 nmol/g and the Activity (Mus musculus [14]) was “Active”. For the same compound, the concentration at 2 h [15] was 8650 nM, the Drug uptake [16] was 0.164 nmol/g and the Activity (Mus musculus [17]) was “Active”. For the same compound, the Drug uptake [18] was 0.012 nmol/g, the Kp at 2 h [19] was 0.026 and the remaining at 10 min, 1 µM [20] was 100%. For the same compound, the IC50 (Cytochrome P450 2C19) was greater than 10 µM, the Vd [21] was 0.456 L/kg and the Kp at 4 h [22] was 0.0099. The EC50 (Cannabinoid receptor 1) was 0.0082 to 0.0083 µM, the remaining at 10 min, 1 µM [23] was 100% and the Drug uptake [24] was 3.49 nmol/g. The Activity (Mus musculus [25]) was “Active”, the clearance [26] was 2.21 mL/min/kg and the concentration at 2 h [27] was 1240 nM.
